Measurements from ChEMBL document CHEMBL3124745, “4-Bicyclic heteroaryl-piperidine derivatives as potent, orally bioavailable stearoyl-CoA desaturase-1 (SCD1) inhibitors: part 2. Pyridazine-based analogs” (Bioorg Med Chem Lett, 2014).

Key:
[1] = target: T1, Stearoyl-CoA desaturase (Homo sapiens, UniProt O00767); assay: Inhibition of SCD1 in human A431 cells assessed as [13C]-palmitic acid conversion to [13C]-palmitoleic acid after 4 hrs by LC/MS analysis; type: cell-based, A-431
T1 sequence (O00767 whole entry): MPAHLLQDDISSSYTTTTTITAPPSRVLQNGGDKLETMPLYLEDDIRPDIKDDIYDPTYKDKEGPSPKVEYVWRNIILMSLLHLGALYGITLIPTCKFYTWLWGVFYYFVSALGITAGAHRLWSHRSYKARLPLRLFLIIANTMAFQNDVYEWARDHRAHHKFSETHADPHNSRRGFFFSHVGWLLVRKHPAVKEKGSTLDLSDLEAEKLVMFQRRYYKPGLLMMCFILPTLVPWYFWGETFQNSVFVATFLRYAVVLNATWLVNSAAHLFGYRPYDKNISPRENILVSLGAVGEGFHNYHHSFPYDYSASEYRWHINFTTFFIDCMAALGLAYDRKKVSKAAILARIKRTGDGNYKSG

[2] = Metabolic stability in human liver microsomes assessed as compound remaining measured at 10 mins; type: ADME; details: read-out: Stability
[3] = Metabolic stability in rat liver microsomes assessed as compound remaining measured at 10 mins; type: ADME; details: read-out: Stability
[4] = test system: Mus musculus; assay: Antiobesity activity in diet-induced obese C57BL/6 mouse assessed as change in body weight at 30 mg/kg, po qd for 10 days (reference value: 2.8 +/- 0.3 g); type: functional
[5] = target: T2, Acyl-CoA desaturase 1 (Rattus norvegicus, UniProt P07308); assay: Inhibition of SCD1 in Sprague-Dawley rat liver microsomes using stearoyl-[9,10-3H]-CoA as substrate
T2 sequence (P07308 whole entry): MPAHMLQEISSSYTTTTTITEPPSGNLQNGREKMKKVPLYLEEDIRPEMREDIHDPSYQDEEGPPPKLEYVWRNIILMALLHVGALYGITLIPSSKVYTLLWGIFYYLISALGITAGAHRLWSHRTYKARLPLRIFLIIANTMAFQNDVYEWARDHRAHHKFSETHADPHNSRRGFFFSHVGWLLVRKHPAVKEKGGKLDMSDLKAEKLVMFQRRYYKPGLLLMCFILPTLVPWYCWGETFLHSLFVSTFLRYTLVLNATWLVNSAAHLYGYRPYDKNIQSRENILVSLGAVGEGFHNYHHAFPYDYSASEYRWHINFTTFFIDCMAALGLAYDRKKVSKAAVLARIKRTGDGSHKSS

[6] = test system: Rattus norvegicus; assay: Antiobesity activity in Zucker fa/fa rat assessed as effect on body weight gain at 3 mg/kg measured on day 22 (reference value: 142 +/- 4 g); type: functional
[7] = test system: Rattus norvegicus; assay: Antiobesity activity in Zucker fa/fa rat assessed as reduction in body weight gain at 10 mg/kg after 26 days relative to control; type: functional; parameters: scale not given: the % may be the effect or the level left
[8] = test system: Rattus norvegicus; assay: Antiobesity activity in Zucker fa/fa rat assessed as reduction in body weight gain at 1 mg/kg after 26 days relative to control; type: functional; parameters: scale not given: the % may be the effect or the level left
[9] = Volume of distribution in Sprague-Dawley rat at 2 mg/kg, iv; type: ADME, organism-based; parameters: dose 2 mg/kg, route intravenous; details: in vivo
[10] = Cmax in Sprague-Dawley rat at 10 mg/kg, po; type: ADME, organism-based; parameters: dose 10 mg/kg, route oral; details: in vivo
[11] = Oral bioavailability in Zucker fa/fa rat at 10 mg/kg; type: ADME, organism-based; details: in vivo
[12] = test system: Rattus norvegicus; assay: Antiobesity activity in Zucker fa/fa rat assessed as effect on body weight gain at 10 mg/kg measured on day 22 (reference value: 142 +/- 4 g); type: functional
[13] = test system: Rattus norvegicus; assay: Antiobesity activity in Zucker fa/fa rat assessed as effect on body weight gain at 10 mg/kg measured on day 8 (reference value: 61 +/- 7 g); type: functional
[14] = test system: Rattus norvegicus; assay: Antiobesity activity in Zucker fa/fa rat assessed as effect on body weight gain at 3 mg/kg measured on day 8 (reference value: 61 +/- 7 g); type: functional
[15] = test system: Rattus norvegicus; assay: Toxicity in Zucker fa/fa rat assessed as change in food intake at 1 to 3 mg/kg after 26 days; type: organism-based; parameters: dose 1-3 mg/kg; details: in vivo, 624 h
[16] = test system: Rattus norvegicus; assay: Antiobesity activity in Zucker fa/fa rat assessed as effect on body weight gain at 3 mg/kg measured on day 26 (reference value: 161 +/- 8 g); type: functional
[17] = AUC (24 hrs) in Sprague-Dawley rat at 10 mg/kg, po; type: ADME, organism-based; parameters: time < 24 hr, dose 10 mg/kg, route oral; details: plasma
[18] = test system: Rattus norvegicus; assay: Antiobesity activity in Zucker fa/fa rat assessed as effect on body weight gain at 1 mg/kg measured on day 15 (reference value: 103 +/- 4 g); type: functional
[19] = test system: Rattus norvegicus; assay: Toxicity in Zucker fa/fa rat assessed as narrow eye fissure at 10 mg/kg; type: organism-based; parameters: dose 10 mg/kg; details: in vivo
[20] = test system: Rattus norvegicus; assay: Antiobesity activity in Zucker fa/fa rat assessed as C16:1 to C16:0 plasma desaturation index at 10 mg/kg after 26 days (reference value: 0.183 +/- 0.012); type: functional
[21] = test system: Rattus norvegicus; assay: Antiobesity activity in Zucker fa/fa rat assessed as effect on body weight gain at 10 mg/kg measured on day 15 (reference value: 103 +/- 4 g); type: functional
[22] = test system: Rattus norvegicus; assay: Antiobesity activity in Zucker fa/fa rat assessed as effect on body weight gain at 10 mg/kg measured on day 26 (reference value: 161 +/- 8 g); type: functional
[23] = test system: Rattus norvegicus; assay: Antiobesity activity in Zucker fa/fa rat assessed as effect on body weight gain at 1 mg/kg measured on day 26 (reference value: 161 +/- 8 g); type: functional
[24] = test system: Rattus norvegicus; assay: Antiobesity activity in Zucker fa/fa rat assessed as effect on body weight gain at 3 mg/kg measured on day 15 (reference value: 103 +/- 4 g); type: functional
[25] = species on record: Rattus norvegicus; assay: Antiobesity activity in Zucker fa/fa rat assessed as reduction in body weight gain after 26 days; type: functional, organism-based
[26] = Clearance in Sprague-Dawley rat at 2 mg/kg, iv; type: ADME, organism-based; parameters: dose 2 mg/kg, route intravenous; details: in vivo
[27] = AUC (24 hrs) in Zucker fa/fa rat at 10 mg/kg, po; type: ADME, organism-based; parameters: time < 24 hr, dose 10 mg/kg, route oral; details: plasma
[28] = test system: Rattus norvegicus; assay: Antiobesity activity in Zucker fa/fa rat assessed as C16:1 to C16:0 plasma desaturation index at 3 mg/kg after 26 days (reference value: 0.183 +/- 0.012); type: functional
[29] = test system: Mus musculus; assay: Toxicity in diet-induced obese C57BL/6 mouse assessed as narrow eye fissure at 30 mg/kg, po; type: organism-based; parameters: dose 30 mg/kg, route oral; details: in vivo
[30] = species on record: Rattus norvegicus; assay: Antiobesity activity in Zucker fa/fa rat assessed as decrease in C16:1 to C16:0 plasma desaturation index after 26 days; type: functional, organism-based
[31] = Cmax in Zucker fa/fa rat at 10 mg/kg, po; type: ADME, organism-based; parameters: dose 10 mg/kg, route oral; details: in vivo
[32] = Oral bioavailability in Sprague-Dawley rat at 10 mg/kg; type: ADME, organism-based; details: in vivo
[33] = test system: Rattus norvegicus; assay: Antiobesity activity in Zucker fa/fa rat assessed as reduction in body weight gain at 3 mg/kg after 26 days relative to control; type: functional; parameters: scale not given: the % may be the effect or the level left
[34] = test system: Rattus norvegicus; assay: Toxicity in Zucker fa/fa rat assessed as reduction in food intake at 10 mg/kg after 22 days relative to control; type: organism-based; parameters: dose 10 mg/kg; scale not given: the % may be the effect or the level left; details: in vivo, 528 h
[35] = test system: Rattus norvegicus; assay: Hepatotoxicity in Zucker fa/fa rat assessed as increase in ALT level at 1 to 10 mg/kg; type: toxicity, organism-based; parameters: dose 1-10 mg/kg; details: in vivo
[36] = test system: Rattus norvegicus; assay: Antiobesity activity in Zucker fa/fa rat assessed as effect on body weight gain at 1 mg/kg measured on day 8 (reference value: 61 +/- 7 g); type: functional
[37] = test system: Rattus norvegicus; assay: Hepatotoxicity in Zucker fa/fa rat assessed as increase in AST level at 1 to 10 mg/kg; type: toxicity, organism-based; parameters: dose 1-10 mg/kg; details: in vivo
[38] = test system: Rattus norvegicus; assay: Antiobesity activity in Zucker fa/fa rat assessed as effect on body weight gain at 1 mg/kg measured on day 22 (reference value: 142 +/- 4 g); type: functional
[39] = test system: Rattus norvegicus; assay: Antiobesity activity in Zucker fa/fa rat assessed as C18:1 to C18:0 plasma desaturation index at 10 mg/kg after 26 days (reference value: 2.16 +/- 0.07); type: functional
[40] = species on record: Rattus norvegicus; assay: Antiobesity activity in Zucker fa/fa rat assessed as decrease in C18:1 to C18:0 plasma desaturation index after 26 days; type: functional, organism-based

Structure (SMILES): CCn1cc(-c2ccc(N3CCC(N4CCc5ccc(F)cc54)CC3)nn2)cn1
- IC50 [1]: 30 nM

Structure (SMILES): CCCn1cc(-c2ccc(N3CCC(N4CCc5ccc(F)cc54)CC3)nn2)cn1
- remaining at 10 min [2]: < 50%
- remaining at 10 min [3]: < 50%

Structure (SMILES): OCc1ccc(-c2ccc(N3CCC(N4CCc5ccc(F)cc54)CC3)nn2)cn1
- Activity [4]: -2.2 g

Structure (SMILES): OCc1cnn(-c2ccc(N3CCC(N4CCc5ccc(F)cc54)CC3)nn2)c1
- IC50 [5]: 17 nM
- Activity [4]: 1.2 g
- IC50 [1]: 6 nM

Structure (SMILES): Cn1cc(-c2ccc(N3CCC(n4ncc5ccc(F)cc54)CC3)nn2)cn1
- Activity [4]: -3.3 g
- IC50 [1]: 51 nM

Structure (SMILES): Cc1cnc(-c2ccc(N3CCC(N4CCc5ccc(F)cc54)CC3)nn2)s1
- IC50 [1]: 12 nM

Structure (SMILES): CCOc1cnn(-c2ccc(N3CCC(N4CCc5ccc(F)cc54)CC3)nn2)c1
- IC50 [5]: 8 nM
- remaining at 10 min [2]: < 50%
- IC50 [1]: 9 nM
- remaining at 10 min [3]: < 50%

Structure (SMILES): CN(C)c1ccc(-c2ccc(N3CCC(N4CCc5ccc(F)cc54)CC3)nn2)cn1
- IC50 [5]: 17 nM
- IC50 [1]: 30 nM

Structure (SMILES): CCOCCn1cc(-c2ccc(N3CCC(N4CCc5ccc(F)cc54)CC3)nn2)cn1
- remaining at 10 min [2]: < 50%
- remaining at 10 min [3]: < 50%

Structure (SMILES): Cc1ccc(-c2ccc(N3CCC(N4CCc5ccc(F)cc54)CC3)nn2)cn1
- IC50 [5]: 13 nM

Structure (SMILES): Cc1ccc(-c2ccc(N3CCC(N4CCc5ccc(F)cc54)CC3)nn2)cc1
- IC50 [1]: 11 nM

Structure (SMILES): OCCn1cc(-c2ccc(N3CCC(N4CCc5ccc(F)cc54)CC3)nn2)cn1
- IC50 [5]: 22 nM
- Activity [4]: 0.5 g

Structure (SMILES): Cn1cc(-c2ccc(N3CCC(N4CCc5ccc(F)cc54)CC3)nn2)cn1
- Activity [6]: 112 g
- Activity [7]: 51%
- Activity [8]: 17%
- Vd [9]: 0.52 L/kg
- Cmax [10]: 4400 ng/mL
- bioavailability [11]: 11%
- Activity [12]: 72 g
- Activity [13]: 29 g
- Activity [14]: 44 g
- Activity [15]: Non-toxic
- Activity [16]: 125 g
- Activity [4]: -2.1 g
- AUC at 24 h [17]: 38800 ng·h/mL
- Activity [18]: 80 g
- Activity [19]: Toxic
- Activity [20]: 0.078
- Activity [21]: 57 g
- Activity [22]: 78 g
- Activity [23]: 133 g
- Activity [24]: 80 g
- Activity [25]: Dose-dependent effect
- clearance [26]: 3.3 mL/min/kg
- AUC at 24 h [27]: 10800 ng·h/mL
- Activity [28]: 0.088
- Activity [29]: Toxic
- Activity [30]: Dose-dependent effect
- Cmax [31]: 1600 ng/mL
- bioavailability [32]: 105%
- Activity [33]: 22%
- Activity [34]: 10%
- Activity [35]: Non-toxic
- Activity [36]: 42 g
- Activity [37]: Non-toxic
- Activity [38]: 116 g
- Activity [39]: 0.92
- Activity [40]: Dose-dependent effect
